Results taken from ChEMBL document CHEMBL1150737, “Antitumor agents, 90. Bruceantinoside C, a new cytotoxic quassinoid glycoside from Brucea antidysenterica” (1987).
≈ marks a conversion by molar mass, not a printed value.

Tests used:
[1] = system: L1210; assay: Cytotoxicity against mouse L1210 cells; format: functional; conditions: read-out: ED50 (the source's name)
[2] = system: P388; assay: Cytotoxicity against mouse P388 cells; format: functional; conditions: read-out: ED50 (the source's name)

In the case of `O=c1[nH]cc(F)c(=O)[nH]1` [FLUOROURACIL], the EC50 [1] is reported as 1.94 µg/mL (≈ 14.9 µM) and the EC50 [2] is reported as 3.72 µg/mL (≈ 28.6 µM).
`COC(=O)[C@]12OC[C@]34[C@H]([C@@H](O)[C@@H]1O)[C@@]1(C)C(=O)C(O[C@@H]5O[C@H](CO)[C@@H](O)[C@H](O)[C@H]5O)=C[C@@H](C)[C@@H]1C[C@H]3OC(=O)[C@H](OC(=O)/C=C(\C)C(C)C)[C@@H]24` [Yadanzioside N] showed an EC50 [1] of 4.56 µg/mL (≈ 6.42 µM) and an EC50 [2] of 2.24 µg/mL (≈ 3.15 µM).
For `COC(=O)[C@]12OC[C@]34[C@H]([C@@H](O)[C@@H]1O)[C@@]1(C)C(=O)C(O[C@@H]5O[C@H](CO)[C@@H](O)[C@H](O)[C@H]5O)=C[C@@H](C)[C@@H]1C[C@H]3OC(=O)[C@H](OC(=O)/C=C(\C)C(C)(C)OC(C)=O)[C@@H]24` [Bruceantinoside C], the EC50 [1] was 3.5 µg/mL (≈ 4.55 µM) and the EC50 [2] was 2.12 µg/mL (≈ 2.76 µM).
`COC(=O)[C@]12OC[C@]34[C@H]([C@@H](O)[C@@H]1O)[C@@]1(C)C=C(O[C@@H]5O[C@H](CO)[C@@H](O)[C@H](O)[C@H]5O)C(=O)[C@@H](C)[C@@H]1C[C@H]3OC(=O)[C@H](OC(=O)/C=C(\C)C(C)(C)OC(C)=O)[C@@H]24` [Yadanzioside G] was tested, and the EC50 [1] was 2.58 µg/mL (≈ 3.36 µM) and the EC50 [2] was 1.25 µg/mL (≈ 1.63 µM).
